Experimental data reported in US20230212571A1, “COMPOSITIONS AND METHODS FOR DELIVERING POLYNUCLEOTIDES” (NeOnc Technologies, Inc., priority 2020, published 2023).

Experiments:
[1] = test system: Mgp^−/− mouse model of AVM; assay: Organ histology and complete blood count; assay type: in vivo; settings: Mgp^−/− mice, IN 2-weeks
Method: In vivo efficacy studies were performed using 3-week-old Mgp^+/- C57BL/6 mice^16,17 (Yao Y, Jumabay M, Wang A, Boström K I. Matrix Gla protein deficiency causes arteriovenous malformations in mice. J Clin Invest. 2011; 121(8):2993-3004) (Yao Y, Yao […], et al. Reducing Jagged 1 and 2 levels prevents cerebral arteriovenous malformations in matrix Gla protein deficiency. Proc Nat Acad Sci USA. 2013; 110(47):19071-19076). provided by Dr. Yucheng Yao (UCLA, Los Angeles) and mated to obtain the appropriate genotypes. Only about 10-15% of each litter were born with the Mgp^-/- genotype, and among those, only about 45% survived until the end of the treatment and/or the imaging of the brain vasculature, due to the extreme severity of the disease in this mouse model. These animals not only suffer AVMs in the brain, but all major organs are also affected and dysfunctional. Thus, […] might die due to several causes, including stroke, severe lung inflammation that causes respiratory failure-especially when anesthesia is used-, organ failure due to liver and/or spleen malfunction, heart failure, etc., drastically limiting the number of the Mgp^-/- mice available for the CTA studies. […] Treatment with 0.08 nmol/mouse of miR-18a or scramble microRNA was administered IN daily for 2-weeks. 2.5 μL/nostril were delivered in RNase-free water. Ultra-high-resolution in vivo computed tomography angiography (CTA) was performed in mice for 3D imaging of whole brain vascular architecture^18, ([…], Rendon D, et al. Ultra-High-Resolution In vivo Computed Tomography Imaging of Mouse Cerebrovasculature Using a Long Circulating Blood Pool Contrast Agent. Scientific reports. 2015; 5:10178) as described in Data. The vascular data was quantified using ImageJ. Regions of interest encompassing the Circle of Willis (CoW) and the azygous of the anterior cerebral artery (AzACA) and its branches were selected in CT images using thick slab maximum intensity projection (MIP) or 3D volume rendering. The images were converted to 8-bit grayscale and thresholded to highlight the vasculature containing pixels. The pixels were analyzed as particles and normalized to results from the wildtype mice (WT, Mgp^+/+). Immediately after imaging, mice were euthanized, and brains were frozen in Clear Frozen Section Compound (VWR) and stored at -80° C. Blood was collected for complete blood count (Antech). The lungs, livers, spleens, femurs, and kidneys were harvested and fixed in 10% formalin. Photographs of the stained sections were captured using an Eclipse 80i microscope (Nikon).

[2] = test system: Mgp^−/− mouse model of AVM; assay: Brain appearance and immunostaining of brain sections; assay type: in vivo; settings: Mgp^−/− mice, IN 2-weeks
Method: Immunostaining was performed as previously described^15. ([…], Golden […], et al. Glioma-associated endothelial cells are chemoresistant to temozolomide. J Neurooncol. 2009; 95(1):13-22). Primary antibodies used were rabbit anti-MMP2, mouse anti-MMP9 (1:150, Abgent), rabbit anti-phospho-Smad1/5 ([…]/465) (1:50, Abgent), rabbit anti-BMP4, rabbit anti-PAI-1 (1:50, Proteintech), rabbit anti-VEGF (1:50, Santa Cruz Biotechnology), rabbit anti-HIF-1α (1:50, Cell Signaling Technology), and rabbit anti-phospho-Smad3 ([…]/425) (1:50, GeneTex). Secondary antibodies used were biotinylated anti-rabbit and biotinylated anti-mouse (1:300, Vector Laboratories), accordingly. Pictures were taken in an Eclipse 80i microscope (Nikon). Images shown are representative of three-five independent experiments. In vivo efficacy studies were performed using 3-week-old Mgp^+/- C57BL/6 mice^16,17 (Yao Y, Jumabay M, Wang A, Boström K I. Matrix Gla protein deficiency causes arteriovenous malformations in mice. J Clin Invest. 2011; 121(8):2993-3004) (Yao Y, Yao […], et al. Reducing Jagged 1 and 2 levels prevents cerebral arteriovenous malformations in matrix Gla protein deficiency. Proc Nat Acad Sci USA. 2013; 110(47):19071-19076). provided by Dr. Yucheng Yao (UCLA, Los Angeles) and mated to obtain the appropriate genotypes. Only about 10-15% of each litter were born with the Mgp^-/- genotype, and among those, only about 45% survived until the end of the treatment and/or the imaging of the brain vasculature, due to the extreme severity of the disease in this mouse model. These animals not only suffer AVMs in the brain, but all major organs are also affected and dysfunctional. Thus, […] might die due to several causes, including stroke, severe lung inflammation that causes respiratory failure-especially when anesthesia is used-, organ failure due to liver and/or spleen malfunction, heart failure, etc., drastically limiting the number of the Mgp^-/- mice available for the CTA studies. […] Treatment with 0.08 nmol/mouse of miR-18a or scramble microRNA was administered IN daily for 2-weeks. 2.5 μL/nostril were delivered in RNase-free water. Ultra-high-resolution in vivo computed tomography angiography (CTA) was performed in mice for 3D imaging of whole brain vascular architecture^18, ([…], Rendon D, et al. Ultra-High-Resolution In vivo Computed Tomography Imaging of Mouse Cerebrovasculature Using a Long Circulating Blood Pool Contrast Agent. Scientific reports. 2015; 5:10178) as described in Data. The vascular data was quantified using ImageJ. Regions of interest encompassing the Circle of Willis (CoW) and the azygous of the anterior cerebral artery (AzACA) and its branches were selected in CT images using thick slab maximum intensity projection (MIP) or 3D volume rendering. The images were converted to 8-bit grayscale and thresholded to highlight the vasculature containing pixels. The pixels were analyzed as particles and normalized to results from the wildtype mice (WT, Mgp^+/+). Immediately after imaging, mice were euthanized, and brains were frozen in Clear Frozen Section Compound (VWR) and stored at -80° C. Blood was collected for complete blood count (Antech). The lungs, livers, spleens, femurs, and kidneys were harvested and fixed in 10% formalin. Photographs of the stained sections were captured using an Eclipse 80i microscope (Nikon).

hsa-miR-18a-5p (UAGGUGCAUCUAGUGCAGAUAG; chemistry not given here; listed as Homo sapiens) [small non-coding RNA molecule involved in post-transcriptional regulation of gene expression; Dharmacon]
bone marrow phenotype (adipose cells, megakaryocytes) [1]: normalized | macrophages in alveoli, lung inflammation [1]: not present | polychromasia [1]: minimal or not present | spleens, macroscopic, compared with Mgp^+/+ and Mgp^−/+ [1]: comparable | blood levels of hematocrit (HCT) ([1]; n=3): normalized | blood levels of hemoglobin (HGB) ([1]; n=3): normalized | blood levels of red blood cells (RBC) ([1]; n=3): normalized | activation (phosphorylation) of Smad1/5 in brain sections (IHC) [2]: decreased | expression of BMP4 in brain sections (IHC) [2]: decreased | expression of HIF-1α in brain sections (IHC) [2]: decreased | expression of PAI-1 in brain sections (IHC) [2]: decreased | expression of VEGF in brain sections (IHC) [2]: decreased | signs of fresh hemorrhage and presence of abnormally enlarged blood vessels in the brain [2]: reduced
